From ChEMBL document CHEMBL3046109, “A Method for Monitoring the Sensitivity of Botrytis cinerea to Mepanipyrim” (2004)

Tests used:
Format in all cases: functional
Botrytis cinerea [1] = experiment: Fungicidal activity against anilinopyrimidine-sensitive Botryotinia fuckeliana KU-01 isolated from grape plant assessed as inhibition of mycelial growth at 1 mg/l after 4 days; conditions: KU-01, 96 h, read-out: GI
Botrytis cinerea [2] = experiment: Fungicidal activity against anilinopyrimidine-resistant Botryotinia fuckeliana CH15.93 infected in strawberry fruit assessed as inhibition of mycelial growth at 50 mg/l treated 2-3 hr before challenge measured after 5 days; conditions: read-out: GI
Botrytis cinerea [3] = experiment: Fungicidal activity against anilinopyrimidine-sensitive Botryotinia fuckeliana KU-01 infected in strawberry fruit assessed as inhibition of mycelial growth at 200 mg/l treated 2-3 hr before challenge measured after 5 days; conditions: read-out: GI
Botrytis cinerea [4] = experiment: Fungicidal activity against anilinopyrimidine-sensitive Botryotinia fuckeliana KU-01 isolated from grape plant assessed as inhibition of mycelial growth at 0.3 mg/l after 4 days; conditions: KU-01, 96 h, read-out: GI
Botrytis cinerea [5] = experiment: Fungicidal activity against anilinopyrimidine-sensitive Botryotinia fuckeliana KU-01 isolated from grape plant assessed as inhibition of mycelial growth at 0.1 mg/l after 4 days; conditions: KU-01, 96 h, read-out: GI
Botrytis cinerea [6] = experiment: Fungicidal activity against anilinopyrimidine-resistant Botryotinia fuckeliana CH12.92 isolated from grape plant assessed as inhibition of mycelial growth at 0.3 mg/l after 4 days; conditions: CH12.92, 96 h, read-out: GI
Botrytis cinerea [7] = experiment: Fungicidal activity against anilinopyrimidine-sensitive Botryotinia fuckeliana KU-01 isolated from grape plant assessed as inhibition of mycelial growth at 3 mg/l after 4 days; conditions: KU-01, 96 h, read-out: GI
Botrytis cinerea [8] = experiment: Fungicidal activity against anilinopyrimidine-sensitive Botryotinia fuckeliana KU-01 isolated from grape plant assessed as inhibition of mycelial growth at 30 mg/l after 4 days; conditions: KU-01, 96 h, read-out: GI
Botrytis cinerea [9] = experiment: Fungicidal activity against anilinopyrimidine-resistant Botryotinia fuckeliana CH164.94 isolated from grape plant assessed as inhibition of mycelial growth at 100 mg/l after 4 days; conditions: CH164.94, 96 h, read-out: GI
Botrytis cinerea [10] = experiment: Fungicidal activity against anilinopyrimidine-sensitive Botryotinia fuckeliana KU-01 isolated from grape plant assessed as inhibition of mycelial growth at 100 mg/l after 4 days; conditions: KU-01, 96 h, read-out: GI
Botrytis cinerea [11] = experiment: Fungicidal activity against anilinopyrimidine-sensitive Botryotinia fuckeliana KU-59 isolated from grape plant assessed as inhibition of mycelial growth at 3 mg/l after 4 days; conditions: KU-59, 96 h, read-out: GI
Botrytis cinerea [12] = experiment: Fungicidal activity against anilinopyrimidine-resistant Botryotinia fuckeliana CH12.92 infected in strawberry fruit assessed as inhibition of mycelial growth at 100 mg/l treated 2-3 hr before challenge measured after 5 days; conditions: read-out: GI
Botrytis cinerea [13] = experiment: Fungicidal activity against anilinopyrimidine-resistant Botryotinia fuckeliana CH15.93 isolated from grape plant assessed as inhibition of mycelial growth at 3 mg/l after 4 days; conditions: CH15.93, 96 h, read-out: GI
Botrytis cinerea [14] = experiment: Fungicidal activity against anilinopyrimidine-resistant Botryotinia fuckeliana CH12.92 isolated from grape plant assessed as inhibition of mycelial growth at 1 mg/l after 4 days; conditions: CH12.92, 96 h, read-out: GI
Botrytis cinerea [15] = experiment: Fungicidal activity against anilinopyrimidine-sensitive Botryotinia fuckeliana KU-59 isolated from grape plant assessed as inhibition of mycelial growth at 0.3 mg/l after 4 days; conditions: KU-59, 96 h, read-out: GI
Botrytis cinerea [16] = experiment: Fungicidal activity against anilinopyrimidine-resistant Botryotinia fuckeliana CH164.94 infected in strawberry fruit assessed as inhibition of mycelial growth at 100 mg/l treated 2-3 hr before challenge measured after 5 days; conditions: read-out: GI
Botrytis cinerea [17] = experiment: Fungicidal activity against anilinopyrimidine-sensitive Botryotinia fuckeliana KU-01 isolated from grape plant assessed as inhibition of mycelial growth at 10 mg/l after 4 days; conditions: KU-01, 96 h, read-out: GI
Botrytis cinerea [18] = experiment: Fungicidal activity against anilinopyrimidine-resistant Botryotinia fuckeliana CH164.94 isolated from grape plant assessed as inhibition of mycelial growth at 3 mg/l after 4 days; conditions: CH164.94, 96 h, read-out: GI
Botrytis cinerea [19] = experiment: Fungicidal activity against anilinopyrimidine-resistant Botryotinia fuckeliana CH15.93 isolated from grape plant assessed as inhibition of mycelial growth at 0.1 mg/l after 4 days; conditions: CH15.93, 96 h, read-out: GI
Botrytis cinerea [20] = experiment: Fungicidal activity against anilinopyrimidine-resistant Botryotinia fuckeliana CH12.92 isolated from grape plant assessed as inhibition of mycelial growth at 3 mg/l after 4 days; conditions: CH12.92, 96 h, read-out: GI
Botrytis cinerea [21] = experiment: Fungicidal activity against anilinopyrimidine-sensitive Botryotinia fuckeliana KU-01 infected in strawberry fruit assessed as inhibition of mycelial growth at 50 mg/l treated 2-3 hr before challenge measured after 5 days; conditions: read-out: GI
Botrytis cinerea [22] = experiment: Fungicidal activity against anilinopyrimidine-sensitive Botryotinia fuckeliana KU-59 isolated from grape plant assessed as inhibition of mycelial growth at 30 mg/l after 4 days; conditions: KU-59, 96 h, read-out: GI
Botrytis cinerea [23] = experiment: Fungicidal activity against anilinopyrimidine-resistant Botryotinia fuckeliana CH12.92 isolated from grape plant assessed as inhibition of mycelial growth at 30 mg/l after 4 days; conditions: CH12.92, 96 h, read-out: GI
Botrytis cinerea [24] = experiment: Fungicidal activity against anilinopyrimidine-resistant Botryotinia fuckeliana CH15.93 infected in strawberry fruit assessed as inhibition of mycelial growth at 200 mg/l treated 2-3 hr before challenge measured after 5 days; conditions: read-out: GI
Botrytis cinerea [25] = experiment: Fungicidal activity against anilinopyrimidine-sensitive Botryotinia fuckeliana KU-59 infected in strawberry fruit assessed as inhibition of mycelial growth at 100 mg/l treated 2-3 hr before challenge measured after 5 days; conditions: read-out: GI

## CC#Cc1cc(C)nc(Nc2ccccc2)n1 [MEPANIPYRIM]
Botrytis cinerea [1]
  inhibition of growth at 1 µg/mL: 100%
Botrytis cinerea [2]
  inhibition of growth at 50 µg/mL: 0%
Botrytis cinerea [3]
  inhibition of growth at 200 µg/mL: 100%
Botrytis cinerea [4]
  inhibition of growth at 0.3 µg/mL: 100%
Botrytis cinerea [5]
  inhibition of growth at 0.1 µg/mL: 75.5%
Botrytis cinerea [6]
  inhibition of growth at 0.3 µg/mL: 19.8%
Botrytis cinerea [7]
  inhibition of growth at 3 µg/mL: 100%
Botrytis cinerea [8]
  inhibition of growth at 30 µg/mL: 100%
Botrytis cinerea [9]
  inhibition of growth at 100 µg/mL: 70.8%
Botrytis cinerea [10]
  inhibition of growth at 100 µg/mL: 100%
Botrytis cinerea [11]
  inhibition of growth at 3 µg/mL: 100%
Botrytis cinerea [12]
  inhibition of growth at 100 µg/mL: 0%
Botrytis cinerea [13]
  inhibition of growth at 3 µg/mL: 65.7%
Botrytis cinerea [14]
  inhibition of growth at 1 µg/mL: 42.6%
Botrytis cinerea [15]
  inhibition of growth at 0.3 µg/mL: 100%
Botrytis cinerea [16]
  inhibition of growth at 100 µg/mL: 0%
Botrytis cinerea [17]
  inhibition of growth at 10 µg/mL: 100%
Botrytis cinerea [18]
  inhibition of growth at 3 µg/mL: 57.9%
Botrytis cinerea [19]
  inhibition of growth at 0.1 µg/mL: 0%
Botrytis cinerea [20]
  inhibition of growth at 3 µg/mL: 60.1%
Botrytis cinerea [21]
  inhibition of growth at 50 µg/mL: 100%
Botrytis cinerea [22]
  inhibition of growth at 30 µg/mL: 100%
Botrytis cinerea [23]
  inhibition of growth at 30 µg/mL: 63.2%
Botrytis cinerea [24]
  inhibition of growth at 200 µg/mL: 0%
Botrytis cinerea [25]
  inhibition of growth at 100 µg/mL: 100%
